# US20250017885A1, “TREATMENT OF INCLUSION BODY MYOSITIS WITH PHENYLBUTYRATE AND MONITORING OF TREATMENT” (University of Kansas, priority 2023, published 2025)
# What was measured:
# [1] = system: cultured human muscle fibers; details: Nogalska et al. 2014, cited from earlier work
# [2] = system: Annexin, MitoSox, TMRE, TDP-43; assay: Exploratory biomarkers: Annexin, MitoSox, TMRE, TDP-43; assay type: in vivo, human; details: FIGS. 7A-7B, 8A-8B, 9A-9B, 10A-10B
# Description: Safety and tolerability of PBA in IBM patients were studied, with a run-in period of 3 months without medication. Biomarkers were studied. […] We have previously assayed TDP-43 and its derivative, phosphorylated TDP-43 (pTDP-43) in peripheral blood platelets in our laboratory (Dr. Agbas). TDP43 positive cytoplasmic aggregates have been described in ALS motor neurons and IBM skeletal muscle tissue with significant up-regulation of TARDBP (the gene expresses TDP-43 protein) and SQTM1 (Sequestosome-1) gene expression.14 Therefore, we planned to measure blood-derived platelet total TDP-43 and pTDP-43 as surrogate biomarker for skeletal muscle TDP-43 profile of IBM patients.
# [3] = system: patients with inclusion body myositis; assay: Secondary outcome measures: strength and functional measures (manual muscle testing, TUG, IBMFRS, grip strength); assay type: in vivo, human
# Description: Primary outcome measures included adverse event reporting. Secondary outcome measures included multiple strength and functional measures: manual muscle testing, timed up and go test (TUG), IBM functional rating scale (IBMFRS), and grip strength. These clinical outcome measures were commonly used in evaluating progression of IBM and in clinical trials of this disease.^18,19,20,21 In addition, safety laboratory tests and electrocardiogram would be monitored regularly. As mentioned above, the biomarkers would be repeated at the end of the treatment period. For the secondary outcomes, the measurements at baseline, month-3, and month-7 would be reported using mean and standard deviation (or median and interquartile range for skewed measurements) along with a corresponding 95% confidence interval. These measurements would be visually compared using box plots to detect the presence of a trend over time by drawing a trend line on the means (or median). Due to the small sample size, this comparison would be done visually, and no formal statistical test would be done routinely but it would be considered to further study a trend.
# [4] = cultured human muscle fibers with experimentally-impaired autophagy
# [5] = lysosomal activity-inhibited CHMFs
substance,measurement,setting,value
phenylbutyrate [PBA],Aβ42 and Aβ42 oligomers,[1]; [4],decreases Aβ42 and Aβ42 oligomers
same,Muscle-fiber vacuolization,[1]; [4],decreasing their vacuolization
same,γ-secretase activity,[1]; [4],decreases γ-secretase activity
same,Cathepsins D and B activities,[1]; [5],increased cathepsins D and B activities
same,"NBR1, p62 and LC3-II",[1]; [5],"decrease of NBR1, p62 and LC3-II"
same,"Change in exploratory biomarkers (Annexin, MitoSox, TMRE, TDP-43)",[2],no meaningful change in most exploratory biomarkers
same,IBMFRS change during the study,"[3]; 3 months run-in, 3 months treatment",did not seem to change during the study
same,IBMFRS median,"[3]; at the end of the treatment period, median 23 at baseline, 24 at the beginning of the treatment period",23
same,"Strength evaluation of 24 muscles with accumulative total score, change",[3]; in vivo,No meaningful change
same,"TUG (seconds) over the duration of the treatment, change",[3]; in vivo,No meaningful change
same,Change in all clinical and most biological outcome measures,"[3]; short duration, small sample size",no meaningful changes in all clinical and most biological outcome measures
